Source: patent publication US6395740B1, “Calcitonin mimetics” (ZymoGenetics, Inc., priority 1997, dated 2002)

Test system: PTH-induced bone resorption in mouse calvaria
Assay: Calvarial assay to determine calcitonin escape
Assay type: cell-based
Experimental: Calvaria from 4-day old neonatal CD-1 mice (pregnant mice received from Charles River Laboratories) were trimmed with fine-tipped scissors to leave the parietal regions, including the sagittal suture. These trimmed bones were placed singly per well into 6-well culture cluster plates (Costar) with 1 mL/well of growth medium, Basel Medium (Eagle's with Earle's salts (GIBCO BRL, Gaithersburg, Md.)) containing 4.5 g/L glucose, 0.29 mg/mL L-glutamine, 1 mM sodium pyruvate, 15% heat-inactivated horse serum, antibiotics (penicillin-G 50 μg/mL, streptomycin 50 μg/mL, and neomycin 100 μg/mL) and containing 5 nM parathyroid hormone (PTH) 1-34 (Sigma), and rocked gently (RedRocker™) at 37° C. in a 5% CO2 humidified incubator for 17.5 hours preincubation. The concentration of PTH was chosen to insure maximum resorption. Calvaria designated as controls were pre-incubated in media without PTH.
Following preincubation, medium was removed and replaced with 1 mL/well of growth medium, as above, containing 20 or 30 μg/mL of the calcitonin mimetic 850-0231 in DMSO (final assay concentration of DMSO less than or equal to 1%), and compared with human calcitonin (hCT) tested at 0.5, 1.0, 5.0, […] All control wells contained a final assay concentration of DMSO equal to that present in the calcitonin mimetic treated wells.
Five bones were included in each sample group. Bones were incubated for a total of 98 hours. Time points were taken at 4, 8, 11, 24, 50.5, 72.5 and 98 hours. At each time point the media containing PTH was removed and fresh dilutions of compound in media were added to the calvaria. After the media was removed, total calcium measurements were made using a Nova 7/7+7 Electrolyte Analyzed (Nova Biomedical) according to the manufacturer's specifications. Induction of bone resorption by PTH is seen as an increase in the concentration of calcium in the growth medium due to degradation of the bone matrix.
A second calvaria bone resorption/escape assay was performed as described above with time points at 4, 8, 12, 16, 24, 49 and 73 hours. […] Histology was done on the PTH-treated and the 30 μg/mL calcitonin mimetic-treated calvaria.
A third calvaria bone resorption/escape assay was performed as described above with the following modifications. The calcitonin mimetic was tested at 5, 10 and 20 μg/mL. PTH was used at 10 nM to insure maximal resorption, hCT was tested at 2 nM and 8 nM and sCT was not included. Calvaria were pretreated with PTH for 19.75 hours. BrdU (bromodeoxyuridine, final concentration 10 μM) was added to the growth media for the final 17.5 hours, to identify proliferating cells. The lack of toxicity of 850-0231 will be verified by quartitating the number of proliferating BudU cells in histological sections of the calvaria. Time points were taken at 4, 8, 11, 24.5, 48 and 77 hours. A Novo CRT 10+ electrolyte analyzer (Nova Biomedical) was used to analyze the time point samples.
At the final time point, visual observations were made and photos taken to note the extent of resorption, and migration from the calvarial cells as a measure of toxicity. Again, human calcitonin lost its inhibitory effect between hours 11 and 24 (Table 5). The calvaria treated with the mimetic at 5 and 10 μg/mL also lost inhibitory effect between 11 and 24 hours.

COc1cc(CN2CCN(C(=O)Nc3cccc(C(F)(F)F)c3)CC2)ccc1O [Compound 850-0231]
escape / continued inhibition of resorption (first assay, PTH 5 nM, 30 μg/mL): did not undergo this escape and continued to inhibit resorption throughout the 98th, hour
Cumulative Total Calcium (first assay, PTH 5 nM, 850-0231 30 μg/mL, 4 hours): 0.16 mg %
Cumulative Total Calcium (first assay, PTH 5 nM, 850-0231 30 μg/mL, 8 hours): 0.28 mg %
Cumulative Total Calcium (first assay, PTH 5 nM, 850-0231 30 μg/mL, 11 hours): 0.36 mg %
Cumulative Total Calcium (first assay, PTH 5 nM, 850-0231 30 μg/mL, 24 hours): 0.48 mg %
Cumulative Total Calcium (first assay, PTH 5 nM, 850-0231 30 μg/mL, 50.5 hours): 0.32 mg %
Cumulative Total Calcium (first assay, PTH 5 nM, 850-0231 30 μg/mL, 72.5 hours): 0.12 mg %
Cumulative Total Calcium (first assay, PTH 5 nM, 850-0231 30 μg/mL, 98 hours): −0.18 mg %
toxicity judged by number of cells migrated from calvaria (first assay, final time point): not toxic to the cells
visual observation of the calvaria (resorption) (first assay, final time point (98 hours)): almost identical in appearance to the untreated calavaria
histology of treated calvaria (integrity, toxicity) (second assay, 30 μg/mL): intact and showed minimal signs of toxicity
continued inhibition of resorption (second assay, PTH 5 nM): able to continue inhibition of resorption throughout the 73rd hour
Cumulative Total Calcium (second assay, PTH 5 nM, 850-0231 30 μg/mL, 4 hours): 0.40 mg %
Cumulative Total Calcium (second assay, PTH 5 nM, 850-0231 30 μg/mL, 8 hours): 0.70 mg %
Cumulative Total Calcium (second assay, PTH 5 nM, 850-0231 30 μg/mL, 12 hours): 0.88 mg %
Cumulative Total Calcium (second assay, PTH 5 nM, 850-0231 30 μg/mL, 16 hours): 1.14 mg %
Cumulative Total Calcium (second assay, PTH 5 nM, 850-0231 30 μg/mL, 24 hours): 1.04 mg %
Cumulative Total Calcium (second assay, PTH 5 nM, 850-0231 30 μg/mL, 49 hours): 0.86 mg %
Cumulative Total Calcium (second assay, PTH 5 nM, 850-0231 30 μg/mL, 73 hours): 0.56 mg %
inhibition of resorption (third assay, PTH 10 nM, 20 μg/mL): significantly inhibited at all time points
Cumulative Total Calcium (third assay, PTH 10 nM, 850-0231 5 μg/mL, 4 hours): 0.47 mg %
Cumulative Total Calcium (third assay, PTH 10 nM, 850-0231 5 μg/mL, 8 hours): 1.08 mg %
Cumulative Total Calcium (third assay, PTH 10 nM, 850-0231 5 μg/mL, 11 hours): 1.49 mg %
Cumulative Total Calcium (third assay, PTH 10 nM, 850-0231 5 μg/mL, 24.5 hours): 3.73 mg %
Cumulative Total Calcium (third assay, PTH 10 nM, 850-0231 5 μg/mL, 48 hours): 7.54 mg %
Cumulative Total Calcium (third assay, PTH 10 nM, 850-0231 5 μg/mL, 77 hours): 11.83 mg %
Cumulative Total Calcium (third assay, PTH 10 nM, 850-0231 10 μg/mL, 4 hours): 0.41 mg %
Cumulative Total Calcium (third assay, PTH 10 nM, 850-0231 10 μg/mL, 8 hours): 0.87 mg %
Cumulative Total Calcium (third assay, PTH 10 nM, 850-0231 10 μg/mL, 11 hours): 1.30 mg %
Cumulative Total Calcium (third assay, PTH 10 nM, 850-0231 10 μg/mL, 24.5 hours): 3.05 mg %
Cumulative Total Calcium (third assay, PTH 10 nM, 850-0231 10 μg/mL, 48 hours): 5.96 mg %
Cumulative Total Calcium (third assay, PTH 10 nM, 850-0231 10 μg/mL, 77 hours): 8.87 mg %
Cumulative Total Calcium (third assay, PTH 10 nM, 850-0231 20 μg/mL, 4 hours): 0.35 mg %
Cumulative Total Calcium (third assay, PTH 10 nM, 850-0231 20 μg/mL, 8 hours): 0.70 mg %
Cumulative Total Calcium (third assay, PTH 10 nM, 850-0231 20 μg/mL, 11 hours): 0.94 mg %
Cumulative Total Calcium (third assay, PTH 10 nM, 850-0231 20 μg/mL, 24.5 hours): 2.23 mg %
Cumulative Total Calcium (third assay, PTH 10 nM, 850-0231 20 μg/mL, 48 hours): 3.20 mg %
Cumulative Total Calcium (third assay, PTH 10 nM, 850-0231 20 μg/mL, 77 hours): 3.78 mg %
